# Laboratory results taken from PMC11878344 (Angewandte Chemie (International Ed. in English), 2025).
# Columns and labels:
# HT-29 cells = experiment: Confocal live cell imaging of HT-29 cells; format: cell-based; details: inhibitor 10 μM; probe 9 0.15 μM
# Description: The enzymatic activity of MAGL plays a critical role in cancer lipid metabolism and is overexpressed in several particularly aggressive cancer cell lines.[56] Therefore, the expression levels of MAGL are considered a prognostic biomarker for the degree of cancer tumor differentiation and progression.[57] Here the colon cancer HT‐29 cell line is one of the prototypical systems regarding the impact of MAGL in proliferating and invasive cancer.[45, 58, 59] We studied the ability of probes 8–12 to detect MAGL by confocal imaging microscopy (Figure 6 A). Consistent staining of MAGL could be achieved with all optimized probes 8–12 carrying NBD, BODIPY, and SiR, respectively, providing a bright and stable fluorescent signal in live cancer cells. […]
# For ABPP experiments, cell lysates containing equal amounts of protein were incubated with the appropriate concentration of activity-based probe for 30 min at room temperature. […] Samples were then separated by SDS-PAGE and bands were detected ChemiDoc Imager (Bio-Rad Laboratories). […] Gels were imaged and protein bands were quantified using Image Lab software (Bio-Rad Laboratories).
# Fluorescence confocal microscopy. […]
# Confocal live cell image acquisition. […] The probe fluorescence was monitored by kinetic measurements of 10 min with a break for probe administration. The fluorescence of one image per sample was captured at each time point. […]
# [1] = test system: primary hippocampal neurons; experiment: Confocal imaging of live primary hippocampal neuron cultures; format: cell-based, mouse; details: inhibitor 10 μM, 2 h before labeling; p <0.01
# Procedure: MAGL plays a vital role in neuronal inflammation[24, 66, 67] and the integrity of the blood–brain barrier.[68, 69] Therefore, we investigated the imaging capability of the probes in live dissociated primary hippocampal neuron cultures (Figure 6 C) as a prime model system in CNS research, particularly in the context of its role in shaping neurotransmitter release and synaptic plasticity properties.[70] Confocal microscopic imaging of the live cultures, at day 14–21 in vitro, was performed on cells treated with probe 9 (1 μM) and the particularly bright silicon‐rhodamine (SiR) probes 10 and 12 (0.5 μM) at 37 °C for 15 min, all of them producing a strong fluorescent signal. […] We observed an accumulation of the fluorescent signal in neuronal varicosities with a distribution that is reminiscent of that of synapses, indicating the localization of MAGL.
# Hippocampal Neurons Staining
# Preparation of primary neuron cultures. For neuron culture, glass coverslips (19 mm, #1.5
# Epredia Deckgläser, CB00190RAC20MNZ0) were coated with PLL (Sigma-Aldrich, P4707; 1:12
# dilution) in phosphate-buffered saline (PBS) for 2h at 37 °C. Hippocampal neurons were then […]
# microscope for a maximum of 30 min. Images were then analyzed using FIJI. […]
# analysis. The protein was analyzed using a Waters H-class instrument equipped with a quaternary […]
# MAGL = test system: MAGL; parameters: method as in PMID 35089028, PMID 34764251, PMID 34328319, PMID 29498843; details: known MAGL ligands of Figure 1; cited from earlier work
structure (smiles),measurement,setting,value
O=C(OC(CO)C(F)(F)F)N1CC2C(C1)C2c1ccn(-c2ccc(F)cc2)n1 (stereo not drawn) [PF-06795071],Effect of pre-incubation on probe 9 fluorescent signal,HT-29 cells,completely suppressed the fluorescent signal
same,Effect of pre-incubation on MAGL probe labeling,[1],strong decrease in mean fluorescent intensity
same,IC50,MAGL,3 nM
